Experimental data reported in patent US9714236B2, “Compounds and methods for inhibiting JAK” (AstraZeneca AB, priority 2015, dated 2017).
pIC50: −log10 of the molar value.

What was measured:
Type in all cases: biochemical
[1] = molecular target: recombinant JAK3 (amino acids 781-1124) (Homo sapiens (Human), UniProt P52333); experiment: Enzyme inhibition studies, JAK3 (peptide phosphorylation, Caliper LC3000); conditions: ATP concentration of the tabulated values not stated (assayed at ATP Km 3 μM and at 5 mM)
Experimental: (§1) Enzyme inhibition studies were performed using recombinant JAK1 (amino acids 866-1154, Life Technologies, #PV4774, Carlsbad, Calif.), JAK2 (amino acids 831-1132), or JAK3 (amino acids 781-1124) under buffer conditions of 50 mM HEPES pH 7.3, 1 mM DTT, 0.01% Tween® 20, 50 μg/mL BSA, and 10 mM MgCl2. JAK enzyme was expressed as an N-terminal GST fusion in insect cells and purified by glutathione-affinity and size-exclusion chromatographies. […] Phosphorylated and unphosphorylated peptides were separated and quantified by a Caliper LC3000 system (Caliper Life Sciences, MA) for calculating percent inhibition.

[2] = molecular target: recombinant JAK1 (amino acids 866-1154) (Homo sapiens (Human), UniProt P23458); experiment: Enzyme inhibition studies, JAK1 (peptide phosphorylation, Caliper LC3000); conditions: ATP concentration not given (assayed at ATP Km 55 μM and at 5 mM)
Experimental: as §1

[3] = molecular target: recombinant JAK2 (amino acids 831-1132) (Homo sapiens (Human), UniProt O60674); experiment: Enzyme inhibition studies, JAK2 (peptide phosphorylation, Caliper LC3000); conditions: ATP concentration of the tabulated values not stated (assayed at ATP Km 15 μM and at 5 mM)
Experimental: as §1

recombinant JAK2 (amino acids 831-1132), sequence (O60674 831-1132): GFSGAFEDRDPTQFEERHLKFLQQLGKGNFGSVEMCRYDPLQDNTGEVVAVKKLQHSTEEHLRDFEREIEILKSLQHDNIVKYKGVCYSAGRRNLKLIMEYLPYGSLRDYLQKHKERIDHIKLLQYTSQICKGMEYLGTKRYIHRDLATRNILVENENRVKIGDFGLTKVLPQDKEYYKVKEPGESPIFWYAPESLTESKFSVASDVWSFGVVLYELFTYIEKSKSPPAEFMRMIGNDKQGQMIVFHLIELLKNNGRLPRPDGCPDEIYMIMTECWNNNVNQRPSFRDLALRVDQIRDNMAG
recombinant JAK3 (amino acids 781-1124), sequence (P52333 781-1124): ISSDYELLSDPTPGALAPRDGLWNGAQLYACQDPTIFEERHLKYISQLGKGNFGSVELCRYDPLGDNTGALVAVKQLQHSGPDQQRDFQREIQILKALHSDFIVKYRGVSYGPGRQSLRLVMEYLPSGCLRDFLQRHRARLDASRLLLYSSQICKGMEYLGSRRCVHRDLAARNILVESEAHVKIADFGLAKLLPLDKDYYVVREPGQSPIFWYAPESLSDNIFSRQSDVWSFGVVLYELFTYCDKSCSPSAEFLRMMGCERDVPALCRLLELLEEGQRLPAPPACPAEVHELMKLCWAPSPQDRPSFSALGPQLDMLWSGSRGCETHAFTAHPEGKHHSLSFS
recombinant JAK1 (amino acids 866-1154), sequence (P23458 866-1154): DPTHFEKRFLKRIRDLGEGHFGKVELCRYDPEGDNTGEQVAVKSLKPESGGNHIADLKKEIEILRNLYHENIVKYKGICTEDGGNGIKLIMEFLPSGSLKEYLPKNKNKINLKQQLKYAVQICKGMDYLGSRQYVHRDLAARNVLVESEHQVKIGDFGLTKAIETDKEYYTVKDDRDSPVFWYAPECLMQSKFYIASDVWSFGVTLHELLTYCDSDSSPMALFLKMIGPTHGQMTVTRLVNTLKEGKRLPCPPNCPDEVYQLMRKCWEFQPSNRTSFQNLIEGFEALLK

pIC50 [1]	pIC50 [2]	pIC50 [3]	SMILES
< 4.52	7.10	4.68	CC[C@@H](C(=O)Nc1cccc2c(-c3nc(Nc4cn(C)nc4OC)ncc3C)c[nH]c12)N1CCN(C)CC1 [Example 43, (2S)-N-(3-{2-[(3-Methoxy-1-methyl-1H-pyrazol-4-yl)amino]-5-methylpyrimidin-4-yl}-1H-indol-7-yl)-2-(4-methylpiperazin-1-yl)butanamide]
< 4.52	> 8.40	5.71	CC[C@H](C(=O)Nc1cccc2c(-c3nc(Nc4cn(C)nc4OC)ncc3C)c[nH]c12)N1CCN(C)CC1 [Example 44, (2R)-N-(3-{2-[(3-Methoxy-1-methyl-1H-pyrazol-4-yl)amino]-5-methylpyrimidin-4-yl}-1H-indol-7-yl)-2-(4-methylpiperazin-1-yl)butanamide]
< 4.52	> 8.52	6.10	COC[C@H](C(=O)Nc1cccc2c(-c3nc(Nc4cn(C)nc4OC)ncc3C)c[nH]c12)N1CCN(C)CC1 [Example 45, (2R)-3-methoxy-N-(3-{2-[(3-methoxy-1-methyl-1H-pyrazol-4-yl)amino]-5-methylpyrimidin-4-yl}-1H-indol-7-yl)-2-(4-methylpiperazin-1-yl)propanamide]
< 4.52	6.01	< 4.52	COC[C@@H](C(=O)Nc1cccc2c(-c3nc(Nc4cn(C)nc4OC)ncc3C)c[nH]c12)N1CCN(C)CC1 [Example 46, (2S)-3-methoxy-N-(3-{2-[(3-methoxy-1-methyl-1H-pyrazol-4-yl)amino]-5-methylpyrimidin-4-yl}-1H-indol-7-yl)-2-(4-methylpiperazin-1-yl)propanamide]
< 4.52	> 8.52	6.49	COC[C@H](C(=O)Nc1cccc2c(-c3nc(Nc4cn(C)nc4C)ncc3F)c[nH]c12)N1CCN(C)CC1 [Example 53, (2R)-N-(3-{2-[(1,3-dimethyl-1H-pyrazol-4-yl)amino]-5-fluoropyimidin-4-yl}-1H-indol-7-yl)-3-methoxy-2-(4-methylpiperazin-1-yl)propanamide]
< 4.52	5.78	< 4.52	COC[C@@H](C(=O)Nc1cccc2c(-c3nc(Nc4cn(C)nc4C)ncc3F)c[nH]c12)N1CCN(C)CC1 [Example 54, (2S)-N-(3-{2-[(1,3-dimethyl-1H-pyrazol-4-yl)amino]-5-fluoropyrimidin-4-yl}-1H-indol-7-yl)-3-methoxy-2-(4-methylpiperazin-1-yl)propanamide]
< 4.52	7.77	5.05	CCn1cc(Nc2ncc(C)c(-c3c[nH]c4c(NC(=O)[C@@H](C)N5CCN(C)CC5)cccc34)n2)c(OC)n1 [Example 58, (2R)-N-(3-{2-[(1-ethyl-3-methoxy-1H-pyrazol-4-yl)amino]-5-methylpyrimidin-4-yl}-1H-indol-7-yl)-2-(4-methylpiperazin-1-yl)propanamide]
< 4.52	8.40	5.82	COC[C@H](C(=O)Nc1cccc2c(-c3ccnc(Nc4cn(C)nc4OC)n3)c[nH]c12)N1CCN(C)CC1 [Example 60, (2R)-3-Methoxy-N-(3-{2-[(3-methoxy-1-methyl-1H-pyrazol-4-yl)amino]pyrimidin-4-yl}-1H-indol-7-yl)-2-(4-methylpiperazin-1-yl)propanamide]
< 4.52	5.54	< 4.52	COC[C@@H](C(=O)Nc1cccc2c(-c3ccnc(Nc4cn(C)nc4OC)n3)c[nH]c12)N1CCN(C)CC1 [Example 61, (2S)-3-Methoxy-N-(3-{2-[(3-methoxy-1-methyl-1H-pyrazol-4-yl)amino]pyrimidin-4-yl}-1H-indol-7-yl)-2-(4-methylpiperazin-1-yl)propanamide]

Further lines, the compound ahead of its results:

SMILES	pIC50 [1]	pIC50 [2]	pIC50 [3]
Cc1cnc(Nc2cn(C)nc2C)nc1-c1c[nH]c2c(NC(=O)[C@H](C)N3CCN(C)CC3)cccc12 [Example 42, (2S)-N-(3-{2-[(1,3-dimethyl-1H-pyrazol-4-yl)amino]-5-methylpyrimidin-4-yl}-1H-indol-7-yl)-2-(4-methylpiperazin-1-yl)propanamide]	< 4.52	6.97	4.68
CC[C@H](C(=O)Nc1cccc2c(-c3ccnc(Nc4cn(C)nc4OC)n3)c[nH]c12)N1CCN(C)CC1 [Example 47, (2R)-N-(3-{2-[(3-Methoxy-1-methyl-1H-pyrazol-4-yl)amino]pyrimidin-4-yl}-1H-indol-7-yl)-2-(4-methylpiperazin-1-yl)butanamide]	< 4.52	7.89	5.16
CC[C@@H](C(=O)Nc1cccc2c(-c3ccnc(Nc4cn(C)nc4OC)n3)c[nH]c12)N1CCN(C)CC1 [Example 48, (2S)-N-(3-{2-[(3-Methoxy-1-methyl-1H-pyrazol-4-yl)amino]pyrimidin-4-yl}-1H-indol-7-yl)-2-(4-methylpiperazin-1-yl)butanamide]	< 4.52	5.92	< 4.52
CC[C@H](C(=O)Nc1cccc2c(-c3nc(Nc4cn(C)nc4C)ncc3F)c[nH]c12)N1CCN(C)CC1 [Example 49, (2R)-N-(3-{2-[(1,3-dimethyl-1H-pyrazol-4-yl)amino]-5-fluoropyrimidin-4-yl}-1H-indol-7-yl)-2-(4-methylpiperazin-1-yl)butanamide]	< 4.52	> 8.40	5.75
CC[C@@H](C(=O)Nc1cccc2c(-c3nc(Nc4cn(C)nc4C)ncc3F)c[nH]c12)N1CCN(C)CC1 [Example 50, (2S)-N-(3-{2-[(1,3-dimethyl-1H-pyrazol-4-yl)amino]-5-fluoropyrimidin-4-yl}-1H-indol-7-yl)-2-(4-methylpiperazin-1-yl)butanamide]	< 4.52	6.58	4.62
CCc1nn(C)cc1Nc1ncc(C)c(-c2c[nH]c3c(NC(=O)[C@@H](C)N4CCN(C)CC4)cccc23)n1 [Example 55, (2R)-N-(3-{2-[(3-ethyl-1-methyl-1H-pyrazol-4-yl)amino]-5-methylpyrimidin-4-yl}-1H-indol-7-yl)-2-(4-methylpiperazin-1-yl)propanamide]	< 4.52	7.57	5.37
Cc1nn(C)cc1Nc1ncc(F)c(-c2c[nH]c3c(NC(=O)[C@@H](C)N4CCN(C)CC4)cccc23)n1 [Example 56, (2R)-N-(3-{2-[(1,3-dimethyl-1H-pyrazol-4-yl)amino]-5-fluoropyrimidin-4-yl}-1H-indol-7-yl)-2-(4-methylpiperazin-1-yl)propanamide]	< 4.52	7.55	5.29
Cc1nn(C)cc1Nc1nccc(-c2c[nH]c3c(NC(=O)[C@@H](C)N4CCN(C)CC4)cccc23)n1 [Example 57, (2R)-N-(3-{2-[(1,3-dimethyl-1H-pyrazol-4-yl)amino]pyrimidin-4-yl}-1H-indol-7-yl)-2-(4-methylpiperazin-1-yl)propanamide]	< 4.52	7.16	5.03
CCOc1nn(CC)cc1Nc1ncc(C)c(-c2c[nH]c3c(NC(=O)[C@@H](C)N4CCN(C)CC4)cccc23)n1 [Example 59, (2R)-N-(3-{2-[(3-ethoxy-1-ethyl-1H-pyrazol-4-yl)amino]-5-methylpyrimidin-4-yl}-1H-indol-7-yl)-2-(4-methylpiperazin-1-yl)propanamide]	< 4.52	7.16	< 4.52
